Reference: the supplement of paper PMC10307832

Tests used:
Experiment in all cases: relative viability (nuclei count vs DMSO), 5 days (fraction); higher = more cells survive
[1] = compound: Cn1cc(-c2cnn3c(N)c(Br)c([C@@H]4CCCNC4)nc23)cn1 + CS(=O)(=O)N1CCN(Cc2cc3nc(-c4cccc5[nH]ncc45)nc(N4CCOCC4)c3s2)CC1 [Pictilisib] (partner 1 µM)
In short: (§1)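 A single step with final 0.05% Triton X-100, 1% formaldehyde and 1 ug/ml Hoechst fixed the cells and stained nuclei 5 days after treatment. Lung cancer cell lines in 1536-well plates had been treated by pin tool the day after seeding with one drug alone or a fixed anchor-drug dose plus five library-drug doses (not always all listed) in √10 steps, and nuclei were counted on 4× images. Relative viability is the ratio of nuclei in treated wells to nuclei in vehicle wells, taken as the median of duplicate plates.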

[2] = compound: Cn1cc(-c2cnn3c(N)c(Br)c([C@@H]4CCCNC4)nc23)cn1 + CC1(C)CCC(c2ccc(Cl)cc2)=C(CN2CCN(c3ccc(C(=O)NS(=O)(=O)c4ccc(N[C@H](CCN5CCOCC5)CSc5ccccc5)c(S(=O)(=O)C(F)(F)F)c4)cc3)CC2)C1 [Navitoclax] (partner 0.5 µM)
In short: as §1

[3] = compound: Cn1cc(-c2cnn3c(N)c(Br)c([C@@H]4CCCNC4)nc23)cn1 + CC(C)C[C@H](NC(=O)[C@H](Cc1ccccc1)NC(=O)c1cnccn1)B(O)O [Bortezomib] (partner 0.002 µM)
In short: as §1

[4] = compound: Cn1cc(-c2cnn3c(N)c(Br)c([C@@H]4CCCNC4)nc23)cn1 + C[C@]1(O)C[C@@H](c2nc(-c3ccc4ccc(-c5ccccc5)nc4c3)c3c(N)nccn32)C1 [Linsitinib] (partner 1 µM)
In short: as §1

[5] = compound: Cn1cc(-c2cnn3c(N)c(Br)c([C@@H]4CCCNC4)nc23)cn1 + O=C(c1cc(Cc2n[nH]c(=O)c3ccccc23)ccc1F)N1CCN(C(=O)C2CC2)CC1 [Olaparib] (partner 8 µM)
In short: as §1

[6] = compound: Cn1cc(-c2cnn3c(N)c(Br)c([C@@H]4CCCNC4)nc23)cn1 + C[C@@H](Oc1cc(-c2cnn(C3CCNCC3)c2)cnc1N)c1c(Cl)ccc(F)c1Cl [Crizotinib] (partner 1 µM)
In short: as §1

[7] = compound: Cn1cc(-c2cnn3c(N)c(Br)c([C@@H]4CCCNC4)nc23)cn1 + COc1cc2c(Oc3ccc(NC(=O)C4(C(=O)Nc5ccc(F)cc5)CC4)cc3F)ccnc2cc1OCCCN1CCOCC1 [Foretinib] (partner 0.25 µM)
In short: as §1

[8] = compound: Cn1cc(-c2cnn3c(N)c(Br)c([C@@H]4CCCNC4)nc23)cn1 + Cc1nc(NC(=O)N2CCC[C@H]2C(N)=O)sc1-c1ccnc(C(C)(C)C(F)(F)F)c1 [Alpelisib] (partner 2 µM)
In short: as §1

[9] = compound: Cn1cc(-c2cnn3c(N)c(Br)c([C@@H]4CCCNC4)nc23)cn1 + CS(=O)(=O)CCNCc1ccc(-c2ccc3ncnc(Nc4ccc(OCc5cccc(F)c5)c(Cl)c4)c3c2)o1 [Lapatinib] (partner 2 µM)
In short: as §1

[10] = compound: Cn1cc(-c2cnn3c(N)c(Br)c([C@@H]4CCCNC4)nc23)cn1
In short: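 In 1536-well plates, lung cancer cell lines rested overnight at 37 °C before five library-drug doses (not always all listed), √10 apart, were pinned onto vehicle-anchored plates. Nuclei were counted with MetaXpress from 4× Hoechst images taken after 5 days without medium change. Viability compares treated-well with vehicle-well nuclei as a median over plates, and plates needed control CV below 25% plus at least one doubling to pass.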

[11] = compound: Cn1cc(-c2cnn3c(N)c(Br)c([C@@H]4CCCNC4)nc23)cn1 + N=C(N)NC(=N)NCCc1ccccc1 [Phenformin] (partner 250 µM)
In short: as §1

[12] = compound: Cn1cc(-c2cnn3c(N)c(Br)c([C@@H]4CCCNC4)nc23)cn1 + Cc1nc(Nc2ncc(C(=O)Nc3c(C)cccc3Cl)s2)cc(N2CCN(CCO)CC2)n1 [Dasatinib] (partner 0.075 µM)
In short: as §1

[13] = compound: Cn1cc(-c2cnn3c(N)c(Br)c([C@@H]4CCCNC4)nc23)cn1 + Cc1cc(Nc2cc(N3CCN(C)CC3)nc(Sc3ccc(NC(=O)C4CC4)cc3)n2)n[nH]1 [Tozasertib] (partner 0.1 µM)
In short: as §1

[14] = compound: Cn1cc(-c2cnn3c(N)c(Br)c([C@@H]4CCCNC4)nc23)cn1 + COc1cccc2cc(-c3nc([C@H]4CC[C@H](C(=O)O)CC4)n4ncnc(N)c34)[nH]c12 [OSI-027] (partner 0.5 µM)
In short: as §1

[15] = compound: Cn1cc(-c2cnn3c(N)c(Br)c([C@@H]4CCCNC4)nc23)cn1 + CCNC(=O)c1noc(-c2cc(C(C)C)c(O)cc2O)c1-c1ccc(CN2CCOCC2)cc1 [Luminespib] (partner 0.01 µM)
In short: as §1

Q: For EBC-1, which relative viability ([1]; first compound 0.05 µM) is on record?
A: 0.466

Q: And the relative viability ([1]; first compound 0.1581 µM)?
A: 0.36

Q: What about the relative viability ([1]; first compound 0.5 µM) of the same cell line?
A: 0.37

Q: And the relative viability ([1]; first compound 1.581 µM)?
A: 0.265

Q: What about the relative viability ([1]; first compound 5 µM) of the same cell line?
A: 0.221

Q: And the relative viability ([2]; first compound 0.05 µM)?
A: 0.39

Q: What about the relative viability ([2]; first compound 0.1581 µM) of the same cell line?
A: 0.347

Q: And the relative viability ([2]; first compound 0.5 µM)?
A: 0.286

Q: And the relative viability ([2]; first compound 1.581 µM)?
A: 0.304

Q: And the relative viability ([2]; first compound 5 µM)?
A: 0.238

Q: What about the relative viability ([3]; first compound 0.05 µM) of the same cell line?
A: 0.609

Q: And the relative viability ([3]; first compound 0.1581 µM)?
A: 0.599

Q: What about the relative viability ([3]; first compound 0.5 µM) of the same cell line?
A: 0.445

Q: What about the relative viability ([3]; first compound 1.581 µM) of the same cell line?
A: 0.461

Q: And the relative viability ([3]; first compound 5 µM)?
A: 0.394

Q: What about the relative viability ([4]; first compound 0.05 µM) of the same cell line?
A: 0.937

Q: What about the relative viability ([4]; first compound 0.1581 µM) of the same cell line?
A: 1.09

Q: And the relative viability ([4]; first compound 0.5 µM)?
A: 0.933

Q: What about the relative viability ([4]; first compound 1.581 µM) of the same cell line?
A: 0.884

Q: And the relative viability ([4]; first compound 5 µM)?
A: 0.799

Q: And the relative viability ([5]; first compound 0.05 µM)?
A: 0.846

Q: And the relative viability ([5]; first compound 0.1581 µM)?
A: 0.854

Q: What about the relative viability ([5]; first compound 0.5 µM) of the same cell line?
A: 0.726

Q: What about the relative viability ([5]; first compound 1.581 µM) of the same cell line?
A: 0.75

Q: And the relative viability ([5]; first compound 5 µM)?
A: 0.616

Q: And the relative viability ([6]; first compound 0.05 µM)?
A: 0.179

Q: And the relative viability ([6]; first compound 0.1581 µM)?
A: 0.179

Q: What about the relative viability ([6]; first compound 0.5 µM) of the same cell line?
A: 0.186

Q: And the relative viability ([6]; first compound 1.581 µM)?
A: 0.174

Q: What about the relative viability ([6]; first compound 5 µM) of the same cell line?
A: 0.17

Q: What about the relative viability ([7]; first compound 0.05 µM) of the same cell line?
A: 0.107

Q: And the relative viability ([7]; first compound 0.1581 µM)?
A: 0.0968

Q: What about the relative viability ([7]; first compound 0.5 µM) of the same cell line?
A: 0.0834

Q: What about the relative viability ([7]; first compound 1.581 µM) of the same cell line?
A: 0.0926

Q: And the relative viability ([7]; first compound 5 µM)?
A: 0.0939

Q: And the relative viability ([8]; first compound 0.05 µM)?
A: 0.902

Q: What about the relative viability ([8]; first compound 0.1581 µM) of the same cell line?
A: 0.913

Q: What about the relative viability ([8]; first compound 0.5 µM) of the same cell line?
A: 0.704

Q: What about the relative viability ([8]; first compound 1.581 µM) of the same cell line?
A: 0.774

Q: What about the relative viability ([8]; first compound 5 µM) of the same cell line?
A: 0.753

Q: And the relative viability ([9]; first compound 0.05 µM)?
A: 0.207

Q: And the relative viability ([9]; first compound 0.1581 µM)?
A: 0.183

Q: What about the relative viability ([9]; first compound 0.5 µM) of the same cell line?
A: 0.24

Q: And the relative viability ([9]; first compound 1.581 µM)?
A: 0.223

Q: And the relative viability ([9]; first compound 5 µM)?
A: 0.192

Q: What about the relative viability ([10]; 0.05 µM) of the same cell line?
A: 1.12

Q: And the relative viability ([10]; 0.1581 µM)?
A: 1.16

Q: What about the relative viability ([10]; 0.5 µM) of the same cell line?
A: 0.882

Q: What about the relative viability ([10]; 1.581 µM) of the same cell line?
A: 0.822

Q: And the relative viability ([10]; 5 µM)?
A: 0.869

Q: For NCI-H1623, which relative viability ([11]; first compound 0.05 µM) is on record?
A: 0.561

Q: What about the relative viability ([11]; first compound 0.1581 µM) of the same cell line?
A: 0.628

Q: What about the relative viability ([11]; first compound 0.5 µM) of the same cell line?
A: 0.632

Q: And the relative viability ([11]; first compound 1.581 µM)?
A: 0.567

Q: What about the relative viability ([11]; first compound 5 µM) of the same cell line?
A: 0.432

Q: And the relative viability ([12]; first compound 0.05 µM)?
A: 0.475

Q: And the relative viability ([12]; first compound 0.1581 µM)?
A: 0.474

Q: And the relative viability ([12]; first compound 0.5 µM)?
A: 0.536

Q: What about the relative viability ([12]; first compound 1.581 µM) of the same cell line?
A: 0.477

Q: And the relative viability ([12]; first compound 5 µM)?
A: 0.399

Q: And the relative viability ([13]; first compound 0.05 µM)?
A: 0.425

Q: What about the relative viability ([13]; first compound 0.1581 µM) of the same cell line?
A: 0.421

Q: And the relative viability ([13]; first compound 0.5 µM)?
A: 0.467

Q: And the relative viability ([13]; first compound 1.581 µM)?
A: 0.41

Q: And the relative viability ([13]; first compound 5 µM)?
A: 0.38

Q: And the relative viability ([7]; first compound 0.05 µM)?
A: 0.811

Q: What about the relative viability ([7]; first compound 0.1581 µM) of the same cell line?
A: 0.831

Q: What about the relative viability ([7]; first compound 0.5 µM) of the same cell line?
A: 0.97

Q: And the relative viability ([7]; first compound 1.581 µM)?
A: 0.844

Q: What about the relative viability ([7]; first compound 5 µM) of the same cell line?
A: 0.606

Q: And the relative viability ([14]; first compound 0.05 µM)?
A: 0.426

Q: And the relative viability ([14]; first compound 0.1581 µM)?
A: 0.456

Q: And the relative viability ([14]; first compound 0.5 µM)?
A: 0.407

Q: What about the relative viability ([14]; first compound 1.581 µM) of the same cell line?
A: 0.418

Q: What about the relative viability ([14]; first compound 5 µM) of the same cell line?
A: 0.382

Q: And the relative viability ([15]; first compound 0.05 µM)?
A: 0.41

Q: What about the relative viability ([15]; first compound 0.1581 µM) of the same cell line?
A: 0.399

Q: What about the relative viability ([15]; first compound 0.5 µM) of the same cell line?
A: 0.538

Q: And the relative viability ([15]; first compound 1.581 µM)?
A: 0.851

Q: And the relative viability ([15]; first compound 5 µM)?
A: 0.322

Q: What about the relative viability ([10]; 0.05 µM) of the same cell line?
A: 0.984

Q: And the relative viability ([10]; 0.1581 µM)?
A: 0.9

Q: And the relative viability ([10]; 0.5 µM)?
A: 1.04

Q: And the relative viability ([10]; 1.581 µM)?
A: 0.942

Q: And the relative viability ([10]; 5 µM)?
A: 0.755
